For assay [1], the target named is T1, TRIM24-PB/histone H3 co-localization in HeLa TRIM24-PB cells (Homo sapiens, UniProt O15164).
T1 construct: The FLAG-TRIM24-PB construct (residues 810–1050) was generated by PCR amplification; expressed in transfected cells
T1 sequence (O15164 810-1050): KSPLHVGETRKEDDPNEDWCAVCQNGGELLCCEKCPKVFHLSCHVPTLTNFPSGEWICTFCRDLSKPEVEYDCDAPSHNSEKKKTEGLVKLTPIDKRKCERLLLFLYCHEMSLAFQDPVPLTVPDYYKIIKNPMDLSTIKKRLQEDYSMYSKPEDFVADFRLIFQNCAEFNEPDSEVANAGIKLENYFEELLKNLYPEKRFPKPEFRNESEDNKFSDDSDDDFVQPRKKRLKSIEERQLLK
In words: Proximity ligation assay (PLA) TRIM24/histone H3. In kind it is cell-based. Conditions: SAHA treatment; Alexa-conjugated secondary antibodies. The protocol:
Hela cells expressing FLAG-TRIM24-PHD-Bromo-V5 (TRIM24-PB) (20 K/100 µL) were seeded into 96-well plates (Corning Costar #CLS3603) in DMEM media supplemented with 10 % FBS and grown overnight. After treatment with SAHA (5 µM, 2 h), plates were washed with PBS (150ul per well) and fixed with 4 % paraformaldehyde (10 min at RT). PLA was performed using Duolink® In situ Red Starter Kit Mouse/Goat (Sigma-Aldrich, DUO92103), according to manufacturer’s recommendation. Primary antibody pair was: Goat anti-V5 (1:200 dilution; Bethyl #A190-119A) and Mouse anti-histone H3 (1:4000 dilution; Active Motif, #39763). Following PLA, secondary antibody Alexa Fluor®594 Donkey Anti-Goat (Invitrogen #A-11056) and Alexa Fluor®488 Donkey Anti-Mouse (Invitrogen #A-21202) were used to measure the total levels of V5 and histone H3. Using the High-Content Screening System Operetta with 40× magnification, cell images from 25 fields in each well were taken in 4 channels (Alexa488, Alexa594, Alexa647 and Hoechst). […] For each gated cell, we calculated the mean signal intensity for histone H3 (Alexa488 in the nucleus minus Alexa488 in the cytoplasm); TRIM24 (Alexa594 in the nucleus minus the […] intensity in the cytoplasm); and the mean number for the PLA signal (number of spots in nucleus). […]

Assay [2] deals with T2, GFP-tagged TRIM24 in HeLa cells (Homo sapiens, UniProt O15164).
T2 construct: PB-TRIM24 PHD and bromodomain of TRIM24; expressed in transfected cells; host or cells: HeLa
T2 sequence (O15164 810-1050 limits assumed): T1 sequence (O15164 810-1050)
As to the kind of experiment: GFP version of the in situ cell extraction assay. Type of assay: cell-based. The source says: In an HTS setting, we further simplified the in situ cell extraction procedure by replacing the indirect IF step (e.g., anti-FLAG) with cells engineered to express fluorescent moieties (e.g., GFP) fused to the protein target of interest (Additional file 1: Figure S5). In this format, the assay has minimal time and reagent costs associated with HTS operation, since no further liquid handling or processing steps are needed after detergent extraction and fixation. […] This is particularly noteworthy for two orthogonal assays that monitor either the displacement of TRIM24 from chromatin/nuclear structures or directly measure TRIM24/histone-H3 dissociation in cells.
OV90 or HeLa cells (20,000 cells/100 µL) were seeded into 96-well plates (Corning Costar #3603) using RPMI or DMEM medium, respectively, supplemented with 10 % FBS and grown overnight. Test agents were serially diluted in DMSO (with or without SAHA) to generate 10X master compound plates. From here, 11 µL was transferred into each well containing 100 µL of growth media followed by shaking on a rotation table (15 min, 300 rpm at RT) and incubation at 37 °C for 2 h. Plates were washed once with PBS (150 µL/well) and then with cold, freshly prepared Cytoskeleton (CSK) Buffer (10 mM PIPES, 300 mM Sucrose, 100 mM NaCl, 3 mM MgCl2; pH = 6.8). Immediately thereafter, soluble, non-chromatin-bound proteins were extracted by addition of cold CSK Buffer supplemented with 0.5 % Triton X-100 (150 µL per well) for 10 min at 4 °C followed by 4 % paraformaldehyde fixation (10 min at RT) (Additional file 1: Table S3). […]
number of fields and the number of cells in 96- and 384-well format that is enough for analysis.
Figure S5. HTS-friendly GFP-version of the in situ cell extraction assay. (A) In situ cell extraction […]
cells were treated with TRIM24i in 96-well plate using concentration range from 20 nM to 100
µM. […] EC50 curve was calculated by Harmony software during the scan. […]
Figure S6. […] Extraction buffer was added to the wells and each field of view was monitored every 3 minutes during 15 minutes. […]

Consider 2 compounds from PMC4578755, “Development of novel cellular histone-binding and chromatin-displacement assays for bromodomain drug discovery” (Epigenetics & Chromatin, 2015).

In the case of `O=C(CCCCCCC(=O)Nc1ccccc1)NO` [SAHA, Suberoylanilide Hydroxamic Acid], the “Mean nuclei levels of TRIM24” value in assay [1] is listed as “did not change”.
As for `Cc1nc(S(=O)(=O)Nc2cc3c(cc2Oc2cccc(OCC(C)C)c2)n(C)c(=O)n3C)cn1C` [IACS-6558, N-{1,3-dimethyl-6-[3-(2-methylpropoxy)phenoxy]-2-oxo-2,3-dihydro-1H-1,3-benzodiazol-5-yl}-1,2-dimethyl-1H-imidazole-4-sulfonamide], the EC50 in assay [2] (HeLa cells expressing GFP-tagged TRIM24, 1 h incubation) stood at 2300 nM. In assay [2] (after extraction), the “Displacement of TRIM24-GFP from chromatin” value is listed as “full displacement”. The “Time to displacement of TRIM24-GFP from chromatin” value in assay [2] (data not shown) is on record as not above 1 min.
